{"source": "PubChem BioAssay AID258", "about": "(DTP/NCI, 2004)", "test_system": "CD2F1 mice, L1210 leukemia sc, survival T/C", "assay": "NCI In Vivo Anticancer Drug Screen. Data for tumor model L1210 Leukemia (subcutaneous) in CD2F1 (CDF1) mice", "conditions": "endpoint: median survival time, higher = longer survival", "procedure": "The antitumor activity of compounds was measured in mice bearing transplantable tumors. Survival or tumor size were measured and the results are expressed as the measurement made in the treated group (T) divided by the measurement made in the vehicle treated control group (C). The tumor model used in this assay is L1210 Leukemia (subcutaneous) in CD2F1 (CDF1) mice", "note": "Values joined by “and” are separate entries in the source; they are usually repeats but may differ in a detail not shown here. Equal entries are not always repeated. Inconclusive results and toxic doses are left out."}
{"smiles": "NC(Cc1ccccc1)C(=O)OCN1C(=O)C2C3C=CC(C2C1=O)C1C2C(=O)N(COC(=O)C(N)Cc4ccccc4)C(=O)C2C31", "note": "(centres undefined)", "values": [{"measurement": "T/C", "setting": "dose: 21.6 mg/kg/injection, schedule: Q01DX005 (iv), vehicle: other", "value": "107 % of control"}, {"measurement": "T/C", "setting": "dose: 21.6 mg/kg/injection, schedule: Q01DX009 (ip), vehicle: other", "value": "111 % of control"}, {"measurement": "T/C", "setting": "dose: 21.6 mg/kg/injection, schedule: Q01DX009 (ip), vehicle: water", "value": "107 % of control and 121 % of control"}, {"measurement": "T/C", "setting": "dose: 30.9 mg/kg/injection, schedule: Q01DX005 (iv), vehicle: other", "value": "105 % of control"}, {"measurement": "T/C", "setting": "dose: 30.9 mg/kg/injection, schedule: Q01DX009 (ip), vehicle: other", "value": "112 % of control"}, {"measurement": "T/C", "setting": "dose: 30.9 mg/kg/injection, schedule: Q01DX009 (ip), vehicle: water", "value": "107 % of control"}, {"measurement": "T/C", "setting": "dose: 36.0 mg/kg/injection, schedule: Q01DX009 (ip), vehicle: water", "value": "109 % of control"}, {"measurement": "T/C", "setting": "dose: 44.1 mg/kg/injection, schedule: Q01DX005 (iv), vehicle: other", "value": "111 % of control"}, {"measurement": "T/C", "setting": "dose: 44.1 mg/kg/injection, schedule: Q01DX009 (ip), vehicle: other", "value": "114 % of control"}, {"measurement": "T/C", "setting": "dose: 63.0 mg/kg/injection, schedule: Q01DX005 (iv), vehicle: other", "value": "117 % of control"}, {"measurement": "T/C", "setting": "dose: 90.0 mg/kg/injection, schedule: Q01DX009 (ip), vehicle: other", "value": "177 % of control"}, {"measurement": "T/C", "setting": "dose: 90.0 mg/kg/injection, schedule: Q01DX009 (ip), vehicle: water", "value": "169 % of control"}, {"measurement": "T/C", "setting": "dose: 100.0 mg/kg/injection, schedule: Q01DX009 (ip), vehicle: water", "value": "211 % of control"}, {"measurement": "T/C", "setting": "dose: 128.6 mg/kg/injection, schedule: Q01DX009 (ip), vehicle: other", "value": "221 % of control"}, {"measurement": "T/C", "setting": "dose: 128.6 mg/kg/injection, schedule: Q01DX009 (ip), vehicle: water", "value": "227 % of control"}, {"measurement": "T/C", "setting": "dose: 216.0 mg/kg/injection, schedule: Q01DX009 (oral), vehicle: water", "value": "122 % of control"}, {"measurement": "T/C", "setting": "dose: 441.0 mg/kg/injection, schedule: Q01DX009 (oral), vehicle: other", "value": "162 % of control"}, {"measurement": "T/C", "setting": "dose: 630.0 mg/kg/injection, schedule: Q01DX009 (oral), vehicle: other", "value": "234 % of control"}, {"measurement": "T/C", "setting": "dose: 630.0 mg/kg/injection, schedule: Q01DX009 (oral), vehicle: water", "value": "171 % of control"}, {"measurement": "T/C", "setting": "dose: 900.0 mg/kg/injection, schedule: Q01DX009 (oral), vehicle: water", "value": "270 % of control"}]}
{"smiles": "Oc1ccc(F)c2cccnc12", "values": [{"measurement": "T/C", "setting": "dose: 39.0 mg/kg/injection, schedule: Q01DX Z (sc), vehicle: other", "value": "100 % of control"}, {"measurement": "T/C", "setting": "dose: 65.0 mg/kg/injection, schedule: Q01DX Z (sc), vehicle: other", "value": "100 % of control"}, {"measurement": "T/C", "setting": "dose: 108.0 mg/kg/injection, schedule: Q01DX Z (sc), vehicle: other", "value": "100 % of control"}, {"measurement": "T/C", "setting": "dose: 180.0 mg/kg/injection, schedule: Q01DX Z (sc), vehicle: other", "value": "100 % of control"}]}
{"smiles": "O=C(Nc1cccc(C2=NCCN2)c1)c1ccc(-c2ccc(C(=O)Nc3cccc(C4=NCCN4)c3)cc2)cc1", "values": [{"measurement": "T/C", "setting": "dose: 23.0 mg/kg/injection, schedule: Q01DX Z (sc), vehicle: water", "value": "110 % of control"}, {"measurement": "T/C", "setting": "dose: 39.0 mg/kg/injection, schedule: Q01DX Z (sc), vehicle: water", "value": "105 % of control"}, {"measurement": "T/C", "setting": "dose: 65.0 mg/kg/injection, schedule: Q01DX Z (sc), vehicle: water", "value": "100 % of control"}, {"measurement": "T/C", "setting": "dose: 108.0 mg/kg/injection, schedule: Q01DX Z (sc), vehicle: water", "value": "105 % of control"}, {"measurement": "T/C", "setting": "dose: 180.0 mg/kg/injection, schedule: Q01DX Z (sc), vehicle: water", "value": "100 % of control"}]}
{"smiles": "O=C(O)c1[nH]c(=O)[nH]c(=O)c1F", "values": [{"measurement": "T/C", "setting": "dose: 3.0 mg/kg/injection, schedule: Q01DX Z (sc), vehicle: saline", "value": "111 % of control"}, {"measurement": "T/C", "setting": "dose: 8.4 mg/kg/injection, schedule: Q01DX Z (sc), vehicle: saline", "value": "177 % of control"}, {"measurement": "T/C", "setting": "dose: 14.0 mg/kg/injection, schedule: Q01DX Z (sc), vehicle: saline", "value": "155 % of control"}, {"measurement": "T/C", "setting": "dose: 23.0 mg/kg/injection, schedule: Q01DX Z (sc), vehicle: saline", "value": "166 % of control"}, {"measurement": "T/C", "setting": "dose: 39.0 mg/kg/injection, schedule: Q01DX Z (sc), vehicle: saline", "value": "155 % of control"}]}
{"smiles": "COc1cccc2c1C(=O)c1c(O)c3c(c(O)c1C2=O)C[C@@](O)(C(=O)CO)C[C@@H]3OC1CC(OC(C)=O)C(OC(C)=O)C(C)O1", "note": "(some centres undefined)", "values": [{"measurement": "T/C", "setting": "dose: 1.56 mg/kg/injection, schedule: Q01DX009 (ip), vehicle: distilled water + Tween-80", "value": "106 % of control"}, {"measurement": "T/C", "setting": "dose: 1.57 mg/kg/injection, schedule: Q01DX009 (ip), vehicle: distilled water + Tween-80", "value": "105 % of control"}, {"measurement": "T/C", "setting": "dose: 3.13 mg/kg/injection, schedule: Q01DX009 (ip), vehicle: distilled water + Tween-80", "value": "105 % of control and 114 % of control"}, {"measurement": "T/C", "setting": "dose: 12.5 mg/kg/injection, schedule: Q01DX009 (ip), vehicle: distilled water + Tween-80", "value": "182 % of control and 195 % of control"}]}
{"smiles": "O=S1(=O)CS(=O)(=O)OCCO1", "values": [{"measurement": "T/C", "setting": "dose: 25.0 mg/kg/injection, schedule: Q01DX009 (ip), vehicle: Klucel (hydroxypropylcellulose) (HPC)", "value": "216 % of control"}, {"measurement": "T/C", "setting": "dose: 50.0 mg/kg/injection, schedule: Q01DX009 (ip), vehicle: Klucel (hydroxypropylcellulose) (HPC)", "value": "175 % of control"}]}
{"smiles": "OC(CBr)C(O)C(O)C(O)CBr", "note": "(centres undefined)", "values": [{"measurement": "T/C", "setting": "dose: 40.0 mg/kg/injection, schedule: Q01DX009 (ip), vehicle: saline", "value": "103 % of control"}, {"measurement": "T/C", "setting": "dose: 40.0 mg/kg/injection, schedule: Q01DX009 (sc), vehicle: saline + alcohol", "value": "105 % of control"}, {"measurement": "T/C", "setting": "dose: 40.0 mg/kg/injection, schedule: Q01DX009 (sc), vehicle: saline with Tween-80", "value": "103 % of control"}, {"measurement": "T/C", "setting": "dose: 80.0 mg/kg/injection, schedule: Q01DX009 (ip), vehicle: saline", "value": "113 % of control"}, {"measurement": "T/C", "setting": "dose: 80.0 mg/kg/injection, schedule: Q01DX009 (sc), vehicle: saline + alcohol", "value": "116 % of control"}, {"measurement": "T/C", "setting": "dose: 100.0 mg/kg/injection, schedule: Q01DX009 (ip), vehicle: saline with Tween-80", "value": "100 % of control"}, {"measurement": "T/C", "setting": "dose: 100.0 mg/kg/injection, schedule: Q01DX009 (sc), vehicle: saline with Tween-80", "value": "103 % of control"}, {"measurement": "T/C", "setting": "dose: 108.0 mg/kg/injection, schedule: Q01DX Z (sc), vehicle: carboxymethylcellulose (CMC)", "value": "100 % of control"}, {"measurement": "T/C", "setting": "dose: 160.0 mg/kg/injection, schedule: Q01DX009 (sc), vehicle: saline + alcohol", "value": "121 % of control"}, {"measurement": "T/C", "setting": "dose: 160.0 mg/kg/injection, schedule: Q01DX009 (sc), vehicle: saline with Tween-80", "value": "103 % of control"}, {"measurement": "T/C", "setting": "dose: 200.0 mg/kg/injection, schedule: Q01DX009 (ip), vehicle: saline with Tween-80", "value": "103 % of control"}, {"measurement": "T/C", "setting": "dose: 200.0 mg/kg/injection, schedule: Q01DX009 (sc), vehicle: saline with Tween-80", "value": "102 % of control"}, {"measurement": "T/C", "setting": "dose: 240.0 mg/kg/injection, schedule: Q01DX009 (ip), vehicle: saline with Tween-80", "value": "124 % of control"}, {"measurement": "T/C", "setting": "dose: 300.0 mg/kg/injection, schedule: Q01DX Z (sc), vehicle: carboxymethylcellulose (CMC)", "value": "100 % of control"}, {"measurement": "T/C", "setting": "dose: 320.0 mg/kg/injection, schedule: Q01DX009 (sc), vehicle: saline with Tween-80", "value": "109 % of control"}, {"measurement": "T/C", "setting": "dose: 400.0 mg/kg/injection, schedule: Q01DX009 (ip), vehicle: saline with Tween-80", "value": "103 % of control"}, {"measurement": "T/C", "setting": "dose: 400.0 mg/kg/injection, schedule: Q01DX009 (sc), vehicle: saline with Tween-80", "value": "110 % of control"}, {"measurement": "T/C", "setting": "dose: 480.0 mg/kg/injection, schedule: Q01DX009 (ip), vehicle: saline with Tween-80", "value": "88 % of control"}, {"measurement": "T/C", "setting": "dose: 500.0 mg/kg/injection, schedule: Q01DX Z (sc), vehicle: carboxymethylcellulose (CMC)", "value": "100 % of control"}, {"measurement": "T/C", "setting": "dose: 640.0 mg/kg/injection, schedule: Q01DX009 (ip), vehicle: saline with Tween-80", "value": "93 % of control"}, {"measurement": "T/C", "setting": "dose: 640.0 mg/kg/injection, schedule: Q01DX009 (sc), vehicle: saline with Tween-80", "value": "104 % of control"}, {"measurement": "T/C", "setting": "dose: 800.0 mg/kg/injection, schedule: Q01DX009 (ip), vehicle: saline with Tween-80", "value": "98 % of control"}, {"measurement": "T/C", "setting": "dose: 800.0 mg/kg/injection, schedule: Q01DX009 (sc), vehicle: saline with Tween-80", "value": "111 % of control"}, {"measurement": "T/C", "setting": "dose: 960.0 mg/kg/injection, schedule: Q01DX009 (ip), vehicle: saline with Tween-80", "value": "96 % of control"}]}
